Columns and labels:
[1] = PK study, intravenous and oral administration, plasma LC-MS/MS; format: in vivo; conditions: both sexes, 5 mg/kg, oral administration of 5 mpk, species not given (ICR mice or SD Rat); for bioavailability: read-out: bioavailability (F); for half-life: read-out: half-life (t1/2) (converted)
Method: ICR mice (male/female, total 6 animals) were assigned to two groups for oral administration and intravenous administration, respectively, with 3 mice in each group. Before administration, the animals were fasted for 10-14 hours, with water available ad lib.
SD Rat (male/female, total 6 animals) were assigned to two groups for oral administration and intravenous administration, respectively, with 3 mice in each group. Before administration, the animals were fasted for 10-14 hours, with water available ad lib.
The compounds to be tested were weighed out in accordance with intended dosage, formulated with vehicles (5% DMSO + 10% Solutol + 85% physiological saline) to dosage form at appropriate concentrations (administered intravenously and orally in rats or mice at a volume of 5 mL/kg and 10 mL/kg, respectively). The dosage form for intravenous injection is a clear solution, and the dosage form for oral administration is a clear solution or homogenous suspension.
Administration to animals was conducted through intravenous injection and oral gavage, and blood samples were collected at 0.033, 0.083, 0.25, 0.5, 1, 2, 4, 8, and 24 hours after intravenous injection, or at 0.083, 0.25, 0.5, 1, 2, 4, 6, 8, and 24 hours after oral administration. After centrifugation of whole blood samples at 4°C and 6,800g for 6 minutes, the upper layers of plasma were stored at -80°C refrigerator before analysis.
The DMSO stock solutions of the substance to be tested were diluted with methanol or acetonitrile solution to serial working solutions and added to blank plasma matrix to formulate samples for standard curve and quality control. An appropriate volume of plasma sample was added with appropriate fold of methanol or acetonitrile containing internal standards, according to response, for protein precipitation. After centrifugation of all samples at 4°C and 18,000g for 10 min, appropriate volumes of supernatant were taken for LC-MS/MS analysis.
Plasma drug concentration-time curves were plotted in accordance with tested concentrations, and pharmacokinetic parameters were calculated based on non-compartmental model using WinNonlin software, including half-life (T1/2), area under the drug concentration-time curve (AUC0-t), clearance rate (CL), steady-state distribution volume (Vss), bioavailability (F), etc.

[2] = molecular target: T1, CYP11A1 (Homo sapiens, UniProt P05108); assay: NCI-H295R cellular pregnenolone biosynthesis inhibition assay (ELISA method); format: cell-based; conditions: NCI-H295R cells, 3 days incubation, pregnenolone in cell supernatant by ELISA; read-out: IC50
T1 construct: host or cells: NCI-H295R
T1 sequence (P05108 40-521): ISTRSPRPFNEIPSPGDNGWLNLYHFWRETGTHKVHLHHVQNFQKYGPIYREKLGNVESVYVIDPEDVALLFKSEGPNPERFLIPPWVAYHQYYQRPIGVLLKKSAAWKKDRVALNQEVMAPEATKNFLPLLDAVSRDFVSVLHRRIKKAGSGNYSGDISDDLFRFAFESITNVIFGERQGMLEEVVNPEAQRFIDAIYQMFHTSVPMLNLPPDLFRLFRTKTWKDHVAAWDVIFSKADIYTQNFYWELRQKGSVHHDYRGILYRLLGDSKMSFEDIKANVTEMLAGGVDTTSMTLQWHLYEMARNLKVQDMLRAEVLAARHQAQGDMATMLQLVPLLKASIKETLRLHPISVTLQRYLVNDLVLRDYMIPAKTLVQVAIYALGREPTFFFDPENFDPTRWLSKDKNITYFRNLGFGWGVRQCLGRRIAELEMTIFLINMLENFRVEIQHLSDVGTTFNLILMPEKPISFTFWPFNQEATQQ
Method: The experiment aims to test the inhibitory effect of the compounds of the present disclosure on cellular pregnenolone biosynthesis, and to assess the inhibitory effect of the compounds on CYP11A1 target based on their IC50 values.
NCI-H295R cells (MINGZHOUBIO, MZ-2138) cultured in NCI-H295R complete medium (MINGZHOUBIO, MCM-0399).
Using culture medium, NCI-H295R cells were seeded into a new 384-well cell culture plate (Greiner, 781091) at a density of 5,000 cells per well, with 45µL of cell suspension per well. The test compounds were prepared by adding 5µL of compound solution at 10× concentration to each well, to a maximum final concentration of 10µM, followed by 3× serial dilution for 10 points, with a final DMSO concentration of 0.1%, centrifuging at 1,000 rpm for 1 minute at room temperature, and then incubating in a 5% CO2 cell incubator at 37°C for 3 days.
Pregnenolone ELISA kit (Abnova, KA1912) was used for detecting the content of pregnenolone in the supernatant of cell culture. Before detection, the reagents were allowed to come back to room temperature for 1 hour. After taking out the 384-well plate, the cellular supernatant was pipetted and subjected to 5× dilution with the Assay Buffer provided in the kit. A working solution of competitive molecule and a washing solution in accordance with the instructions was prepared. 50µL of diluted cellular supernatant were pipetted into the 96-well plate provided in the ELISA kit, added with 100µL of working solution of competitive molecule per well and the plate was incubated at room temperature for 1.5 hours. After discarding the liquid, the plate was washed with 300µL of washing solution per well three times and dried. After adding 150 µL of substrate chromogenic solution per well, the plate was incubated at room temperature for 10-15 minutes. After adding 50 µL of termination solution per well, the plate was incubated at room temperature for 10-15 minutes and read for absorbance at 450nm with Envision HTS Multilabel Reader.
The wells added with 1µM ODM-208 were defined as 100% inhibition (positive control), the wells containing DMSO at a final concentration of 0.1% were defined as 0% inhibition (negative control), and inhibitory ratio = (absorbance of tested sample - average absorbance of negative control)/(average absorbance of positive control - average absorbance of negative control)*100%. The data were subjected to four-parameter fitting using GraphPad Prism to calculate the IC50 values of the compounds.

[3] = LC-MS detection of concentrations of tested compounds in mouse plasma, tumors and adrenal glands; format: in vivo; conditions: compound + prednisone group vs ODM-208 + prednisone group of the VCaP model
Source text: • Mouse tumors were homogenized using PBS in a 1:5 ratio (tumor weight (g): PBS volume (mL), w/v); • Mouse adrenal glands were homogenized using PBS in a 1:10 ratio (adrenal gland weight (g): PBS volume (mL), w/v); • Standard sample: testosterone (LGC, C17322500), progesterone (MCE, HY-N0437), adrenal ketone (MCE, HY-B1618), and standard solution of test substance.
Concentrations of tested compounds in mouse plasma, tumors and adrenal glands: The multiple reaction monitoring (MRM) method was used to detect the concentrations in mouse plasma, tumors and adrenal glands. Mass spectrum: AB Sciex Triple Quad 6500+, liquid chromatography: Shimadzu 40A, column: XBridge BEH C18 2.5 µm 2.1*50mm, ODM208 ion pair: 419.20/176.20, tested compounds ion pair: 429.20/200.20. Acetonitrile was used as precipitant, and propranolol diclofenac were used as the internal standard for sample pretreatment in plasma, tumor, and adrenal tissue. The linear ranges of the standard in plasma tissue was 0.5-1000 ng/mL, the linear ranges of the standard in tumor tissue was 3-6000 ng/mL, and the linear ranges of the standard in adrenal tissue was 5.5-11000 ng/mL.

Q: For `Cn1c(CN2Cc3ccccc3C2)c(F)cc(C=CC2CCN(C(=O)CC#N)CC2)c1=O` [compound 112], which AUC [1] is on record?
A: > 1700 ng·h/mL

Q: What about the Cmax [1] of the same compound?
A: > 1000 ng/mL

Q: And the bioavailability [1]?
A: > 60%

Q: What about the IC50 [2] of the same compound?
A: < 100 nM

Q: For `COc1cc(CN2Cc3ccccc3C2)ccc1CCC1CCN(S(C)(=O)=O)CC1` [compound 53], which “drug concentration in adrenal glands relative to ODM-208” value [3] is on record?
A: 80 fold

Q: What about the “drug concentration in plasma relative to ODM-208” value [3] of the same compound?
A: 3 fold

Q: What about the “drug concentration in tumors relative to ODM-208” value [3] of the same compound?
A: 10 fold

Q: What about the AUC [1] of the same compound?
A: > 1700 ng·h/mL

Q: What about the half-life [1] of the same compound?
A: > 3 h

Q: And the IC50 [2]?
A: < 100 nM

Q: For `Cn1c(CN2Cc3ccccc3C2)c(F)cc(CCC2CCN(S(C)(=O)=O)CC2)c1=O` [compound 72], which “drug concentration in adrenal glands relative to ODM-208” value [3] is on record?
A: 3.3 fold

Q: What about the “drug concentration in plasma relative to ODM-208” value [3] of the same compound?
A: 1.6 fold

Q: What about the “drug concentration in tumors relative to ODM-208” value [3] of the same compound?
A: 3.6 fold

Q: And the AUC [1]?
A: > 1700 ng·h/mL

Q: What about the bioavailability [1] of the same compound?
A: > 60%

Q: And the half-life [1]?
A: > 3 h

Q: What about the IC50 [2] of the same compound?
A: < 100 nM
